Assay results reported in US12564575B2 (priority 2019, dated 2026).
Entries after “also recorded” stand apart in the source; their conditions may differ.

What was measured:
Streptococcus suis = assay: Juvenile pig with Streptococcus suis infection during experimental envenoming study; type: in vivo, Sus domesticus; conditions: S. suis infected juvenile pig; LY315920 plus single non-curative antibiotic dose; euthanized as scheduled
[1] = system: vero epithelial cells (CCL-81); assay: ECIS study of vero epithelial cells exposed to snake venom; type: cell-based, African green monkey; conditions: for cellular function and cell-cell junction integrity measured by resistance: C. scutulatus whole venom (high sPLA2 content)
[2] = system: venom MP (Sistrurus venom metalloprotease activity); type: biochemical, Viper, elapid and colubrid venom; conditions: FIG. 4, Table 2; comparison of hydroxamate metalloprotease inhibitors
LPS/OA induced ARDS = system: LPS/OA induced ARDS; set-up: species or system C57BL/6 mice; conditions: mouse, in vivo, po, 10 mg/kg
[3] = system: LPS/OA-induced lung injury and ARDS; type: in vivo, C57BL/6 mice

Compound | survival (Streptococcus suis) | difference in response between the two varespladib doses ([1]; 0.05 mg/ml versus 0.01 mg/mL) | inter-cellular attachments (resistance) and cell viability (capacitance) ([1]; C. scutulatus and Daboia russelli (Pakistan) venoms, varespladib 0.05 mg/ml and 0.01 mg/mL) | cellular function and cell-cell junction integrity measured by resistance [1] | potency (IC50) against venom metalloprotease activity, in words [2] | damage from LPS/OA induced ARDS (histopathology) (LPS/OA induced ARDS) | clinical appearance of treated animals ([3]; […], 24 and 48 hours, versus lethargic, tachypneic controls) | lung sound amplitude, distance from maximum (audiogram) ([3]; […], recordings at 24 hours, control −29.7 db) | difference in lung sound amplitude between treated and untreated mice ([3]; […], treated quieter) | alveolar damage (ATS workshop lung injury score) ([3]; mouse, in vivo)
CCc1c(C(=O)C(N)=O)c2c(OCC(=O)O)cccc2n1Cc1ccccc1 [varespladib] | > 100 h | no significant difference | recovers and stabilizes inter-cellular attachments (resistance) and cell viability (capacitance) | preserves cellular function and cell-cell junction integrity |  |  |  |  |  | 
CNC(=O)[C@@H](NC(=O)[C@H](CC(C)C)[C@H](O)C(=O)NO)C(C)(C)C [marimastat] |  |  |  |  | good to excellent performance |  |  |  |  | 
C[C@H](Cc1cccc(-c2cc(Cc3ccccc3)ccc2C(N)=O)c1)C(=O)O [AZD2716, (R)-3-(5′-benzyl-2′-carbamoyl-[1,1′-biphenyl]-3-yl)-2-methylpropanoic acid] |  |  |  | preserves cellular function and cell-cell junction integrity |  | rescue and reduce damage | bright, alert and responsive | −38.5 db | ~10 dB | prevented and rescued; also recorded: protects and reduces alveolar damage
